From patent US20240009223A1, “6-THIO-2'-DEOXYGUANOSINE (6-THIO-DG) RESULTS IN TELOMERASE DEPENDENT TELOMERE DYSFUNCTION AND CELL DEATH IN VARIOUS MODELS OF THERAPY-RESISTANT CANCER CELLS” (The Board of Regents of The University of Texas System, priority 2016, published 2024)

Test system: A375^Fucci2 cells
Assay: Time-lapse imaging of cell cycle (Fucci2)
Format: cell-based, human
Conditions: over 42 hours, data not shown

## Nc1nc2c(ncn2[C@H]2C[C@H](O)[C@@H](CO)O2)c(=S)[nH]1 [6-thio-dG, 6-thio-2′-deoxyguanosine]
  cell cycle progression (time-lapse imaging): arrested at the G2/M checkpoint followed by cell death
